Results taken from patent US20140342392A1, “OPTIMIZED INSECT-BASED EX VIVO MODEL FOR TESTING BLOOD-BRAIN BARRIER PENETRATION AND METHOD FOR EXPOSING INSECT BRAIN TO CHEMICAL COMPOUNDS” (ENTOMOPHARM ApS, priority 2011, published 2014).

Test system: locust brain (blood-brain barrier)
Details: co-treatment with verapamil, brain removed from the cuticula, also after removal of the neural lamella
Protocol: 1. […] The insects may be obtained from local suppliers or bred in house. The grasshoppers were reared under crowded conditions at 28° C. and a 12:12 dark:light photocycle and fed fresh grass and bran. Before experiments the grasshoppers were fed ecologically cultivated wheat for two weeks. Animals used are adult males (in some experiments females) between two to four weeks after adult emergence. […] After various times of exposure the preparation is washed in saline and the brain is dissected under microscope with fine forceps. The neural lamella surrounding the brain is removed in saline and the brain is then […] in saline, centrifuged and the supernatant frozen until analyses. Drug concentration is analysed by HPLC, LC/MSMS or other methods.

## C=C[C@H]1C[N@@]2CC[C@H]1C[C@@H]2[C@@H](O)c1ccnc2ccc(OC)cc12 [quinidine]
  brain concentration with versus without Pgp inhibitor (FIG. 2): higher after co-treatment with the Pgp inhibitor verapamil
